Test system: beta-TC6 cells
Experiment: Insulin HTRF assay (relative activity Ar) in beta-TC6 cells
Format: cell-based, mouse
Conditions: Mus musculus, Beta-TC6, 4 h, insulin HTRF, supernatant of beta-TC6 cells, incubation with test compound at 37°C for 2, 3, 4h; read-out: Ar (relative activity)
In short: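 beta-TC6 cells (15k/well, seeded 24 or 48 h) washed, then exposed to compound in induction buffer (0.5% DMSO final) for 2, 3 or 4 h at 37°C.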

SMILES	Emax [%]
CNc1nc2cnc(Nc3ccc(N4CCN(C)CC4)cc3)cc2n1CC1CC1 [Compound 572, 1-(cyclopropylmethyl)-N2-methyl-N6-[4-(4-methylpiperazin-1-yl)phenyl]imidazo[4,5-c]pyridine-2,6-diamine]	50 to 100
CNc1nc2cnc(Nc3cccc(N(C)C)c3)cc2n1CC1CC1 [Compound 573, 1-(cyclopropylmethyl)-N6-[3-(dimethylamino)phenyl]-N2-methyl-imidazo[4,5-c]pyridine-2,6-diamine]	30 to 50
CNc1nc2cnc(Nc3cccc(NC(C)=O)c3)cc2n1CC1CC1 [Compound 574, N-[3-[[1-(cyclopropylmethyl)-2-(methylamino)imidazo[4,5-c]pyridin-6-yl]amino]phenyl]acetamide]	50 to 100
CC(=O)Nc1ccc(Nc2cc3c(cn2)nc(NCc2cccc(C)c2)n3C)cc1 [Compound 576, N-[4-[[1-methyl-2-(m-tolylmethylamino)imidazo[4,5-c]pyridin-6-yl]amino]phenyl]acetamide]	50 to 100
Cc1cccc(CNc2nc3cnc(Nc4ccc5c(c4)OCCO5)cc3n2C)c1 [Compound 577, N6-(2,3-dihydro-1,4-benzodioxin-6-yl)-1-methyl-N2-(m-tolylmethyl)imidazo[4,5-c]pyridine-2,6-diamine]	50 to 100
COc1ccc(Nc2cc3c(cn2)nc(NCc2cccc(C)c2)n3C)cc1OC [Compound 578, N6-(3,4-dimethoxyphenyl)-1-methyl-N2-(m-tolylmethyl)imidazo[4,5-c]pyridine-2,6-diamine]	50 to 100
COc1ccc(-c2cc3c(cn2)nc(NCc2cccc(C)c2)n3C)cc1OC [Compound 579, 6-(3,4-dimethoxyphenyl)-1-methyl-N-(m-tolylmethyl)imidazo[4,5-c]pyridin-2-amine]	30 to 50
CC(=O)Nc1cccc(-c2cc3c(cn2)nc(NCc2cccc(C)c2)n3C)c1 [Compound 580, N-[3-[1-methyl-2-(m-tolylmethylamino)imidazo[4,5-c]pyridin-6-yl]phenyl]acetamide]	30 to 50
Cc1cccc(CNc2nc3cnc(-c4ccc(Cl)cc4)cc3n2C)c1 [Compound 581, 6-(4-chlorophenyl)-1-methyl-N-(m-tolylmethyl)imidazo[4,5-c]pyridin-2-amine]	30 to 50
Cc1cccc(CNc2nc3cnc(Nc4ccc(F)cc4)cc3n2C)c1 [Compound 582, N6-(4-fluorophenyl)-1-methyl-N2-(m-tolylmethyl)imidazo[4,5-c]pyridine-2,6-diamine]	30 to 50
Cc1cccc(CNc2nc3cnc(-c4ccoc4)cc3n2C)c1 [Compound 583, 6-(3-furyl)-1-methyl-N-(m-tolylmethyl)imidazo[4,5-c]pyridin-2-amine]	50 to 100
Cc1cccc(CNc2nc3cnc(Nc4cccc(S(C)(=O)=O)c4)cc3n2C)c1 [Compound 584, 1-methyl-N6-(3-methylsulfonylphenyl)-N2-(m-tolylmethyl)imidazo[4,5-c]pyridine-2,6-diamine]	30 to 50
Cc1cccc(CNc2nc3cnc(Nc4cccc(O)c4)cc3n2C)c1 [Compound 585, 3-[[1-methyl-2-(m-tolylmethylamino)imidazo[4,5-c]pyridin-6-yl]amino]phenol]	50 to 100
COc1ncccc1-c1cc2c(cn1)nc(NCc1cccc(C)c1)n2C [Compound 586, 6-(2-methoxy-3-pyridyl)-1-methyl-N-(m-tolylmethyl)imidazo[4,5-c]pyridin-2-amine]	30 to 50
Cc1cccc(CNc2nc3cnc(Nc4cccc(NS(C)(=O)=O)c4)cc3n2C)c1 [Compound 587, N-[3-[[1-methyl-2-(m-tolylmethylamino)imidazo[4,5-c]pyridin-6-yl]amino]phenyl]methanesulfonamide]	50 to 100
COc1cc(Nc2nc3cnc(-c4ccccc4)cc3n2C)cc(OC)c1OC [Compound 588, 1-methyl-6-phenyl-N-(3,4,5-trimethoxyphenyl)imidazo[4,5-c]pyridin-2-amine]	30 to 50
COc1cc(Nc2nc3cnc(-c4cccnc4)cc3n2C)cc(OC)c1OC [Compound 589, 1-methyl-6-(3-pyridyl)-N-(3,4,5-trimethoxyphenyl)imidazo[4,5-c]pyridin-2-amine]	50 to 100
Cn1c(Nc2cccc(C(F)(F)F)c2)nc2cnc(-c3ccc(N)nc3)cc21 [Compound 590, 6-(6-amino-3-pyridyl)-1-methyl-N-[3-(trifluoromethyl)phenyl]imidazo[4,5-c]pyridin-2-amine]	50 to 100
COc1ccc(OC)c(CCNc2nc3cnc(-c4ccncc4)cc3n2C)c1 [Compound 591, N-[2-(2,5-dimethoxyphenyl)ethyl]-1-methyl-6-(4-pyridyl)imidazo[4,5-c]pyridin-2-amine]	30 to 50
COc1ccc(OC)c(CCNc2nc3cnc(-c4ccsc4)cc3n2C)c1 [Compound 592, N-[2-(2,5-dimethoxyphenyl)ethyl]-1-methyl-6-(3-thienyl)imidazo[4,5-c]pyridin-2-amine]	50 to 100

SMILES	Emax [%]
COc1ccc(OC)c(CCNc2nc3cnc(-c4cc(OC)c(OC)c(OC)c4)cc3n2C)c1 [Compound 593, N-[2-(2,5-dimethoxyphenyl)ethyl]-1-methyl-6-(3,4,5-trimethoxyphenyl)imidazo[4,5-c]pyridin-2-amine]	30 to 50
COc1ccc(OC)c(CCNc2nc3cnc(-c4ccc(O)c(OC)c4)cc3n2C)c1 [Compound 594, 4-[2-[2-(2,5-dimethoxyphenyl)ethylamino]-1-methyl-imidazo[4,5-c]pyridin-6-yl]-2-methoxy-phenol]	30 to 50
COc1ccc(OC)c(CCNc2nc3cnc(-c4cccs4)cc3n2C)c1 [Compound 595, N-[2-(2,5-dimethoxyphenyl)ethyl]-1-methyl-6-(2-thienyl)imidazo[4,5-c]pyridin-2-amine]	30 to 50
Cn1c(NCC2CC2)nc2cnc(-c3ccsc3)cc21 [Compound 596, N-(cyclopropylmethyl)-1-methyl-6-(3-thienyl)imidazo[4,5-c]pyridin-2-amine]	50 to 100
Cn1c(NCC2CC2)nc2cnc(-c3ccc(N4CCNCC4)cc3)cc21 [Compound 597, N-(cyclopropylmethyl)-1-methyl-6-(4-piperazin-1-ylphenyl)imidazo[4,5-c]pyridin-2-amine]	50 to 100
Cn1c(NCC2CC2)nc2cnc(Nc3ccc4c(c3)OCO4)cc21 [Compound 598, N6-(1,3-benzodioxol-5-yl)-N2-(cyclopropylmethyl)-1-methyl-imidazo[4,5-c]pyridine-2,6-diamine]	30 to 50
COc1ccc(CNc2nc3cnc(Nc4cc(OC)c(OC)c(OC)c4)cc3n2C)cc1OC [Compound 599, N2-[(3,4-dimethoxyphenyl)methyl]-1-methyl-N6-(3,4,5-trimethoxyphenyl)imidazo[4,5-c]pyridine-2,6-diamine]	50 to 100
COc1ccc(CNc2nc3cnc(Nc4ccc(NC(C)=O)cc4)cc3n2C)cc1OC [Compound 600, N-[4-[[2-[(3,4-dimethoxyphenyl)methylamino]-1-methyl-imidazo[4,5-c]pyridin-6-yl]amino]phenyl]acetamide]	50 to 100
COc1ccc(CNc2nc3cnc(Nc4ccc(C(N)=O)cc4)cc3n2C)cc1OC [Compound 601, 4-[[2-[(3,4-dimethoxyphenyl)methylamino]-1-methyl-imidazo[4,5-c]pyridin-6-yl]amino]benzamide]	50 to 100
COc1ccc(Nc2cc3c(cn2)nc(NCc2ccc(OC)c(OC)c2)n3C)c(OC)c1 [Compound 602, N6-(2,4-dimethoxyphenyl)-N2-[(3,4-dimethoxyphenyl)methyl]-1-methyl-imidazo[4,5-c]pyridine-2,6-diamine]	30 to 50
COc1ccc(CNc2nc3cnc(Nc4ccc(OC)c(OC)c4)cc3n2C)cc1OC [Compound 603, N6-(3,4-dimethoxyphenyl)-N2-[(3,4-dimethoxyphenyl)methyl]-1-methyl-imidazo[4,5-c]pyridine-2,6-diamine]	50 to 100
COc1ccc(CNc2nc3cnc(Nc4ccccc4)cc3n2C)cc1OC [Compound 604, N2-[(3,4-dimethoxyphenyl)methyl]-1-methyl-N6-phenyl-imidazo[4,5-c]pyridine-2,6-diamine]	30 to 50
COc1ccc(CNc2nc3cnc(Nc4ccc(N5CCN(C)CC5)cc4)cc3n2C)cc1OC [Compound 605, N2-[(3,4-dimethoxyphenyl)methyl]-1-methyl-N6-[4-(4-methylpiperazin-1-yl)phenyl]imidazo[4,5-c]pyridine-2,6-diamine]	50 to 100
COc1ccc(Nc2cc3c(cn2)nc(NCc2ccc(OC)c(OC)c2)n3C)cc1 [Compound 606, N2-[(3,4-dimethoxyphenyl)methyl]-N6-(4-methoxyphenyl)-1-methyl-imidazo[4,5-c]pyridine-2,6-diamine]	50 to 100
COc1ccc(CNc2nc3cnc(Nc4ccc(F)cc4)cc3n2C)cc1OC [Compound 607, N2-[(3,4-dimethoxyphenyl)methyl]-N6-(4-fluorophenyl)-1-methyl-imidazo[4,5-c]pyridine-2,6-diamine]	50 to 100
COc1ccc(CNc2nc3cnc(Nc4cccc(S(C)(=O)=O)c4)cc3n2C)cc1OC [Compound 608, N2-[(3,4-dimethoxyphenyl)methyl]-1-methyl-N6-(3-methylsulfonylphenyl)imidazo[4,5-c]pyridine-2,6-diamine]	30 to 50
CNc1nc2cnc(Nc3cc(OC)c(OC)c(OC)c3)cc2n1C [Compound 609, N2,1-dimethyl-N6-(3,4,5-trimethoxyphenyl)imidazo[4,5-c]pyridine-2,6-diamine]	50 to 100
CNc1nc2cnc(Nc3ccc(OC)cc3OC)cc2n1C [Compound 610, N6-(2,4-dimethoxyphenyl)-N2,1-dimethyl-imidazo[4,5-c]pyridine-2,6-diamine]	50 to 100
CNc1nc2cnc(Nc3ccc(F)cc3)cc2n1C [Compound 611, N6-(4-fluorophenyl)-N2,1-dimethyl-imidazo[4,5-c]pyridine-2,6-diamine]	30 to 50
CNc1nc2cnc(-c3ccc(O)c(OC)c3)cc2n1C [Compound 612, 2-methoxy-4-[1-methyl-2-(methylamino)imidazo[4,5-c]pyridin-6-yl]phenol]	50 to 100

From patent EP2818472A1, “Imidazo[4,5-c]pyridine and pyrrolo[3,2-c]pyridine compounds as G-protein-coupled receptor kinase 5 (GRK5) modulators” (Max-Planck-Gesellschaft zur Förderung der Wissenschaften …, priority 2013, dated 2014)
